Experimental findings from patent US5502035A, “N-terminus modified analogs of LHRH” (Tap Holdings Inc., priority 1994, dated 1996) are described below.

In the assay the target is T1, LHRH (Rattus norvegicus, UniProt P30969).
T1 construct: endogenous in cells; host or cells: rat pituitary cells (own knowledge of the cited Haviv 1989 method)
T1 sequence (P30969 1-327): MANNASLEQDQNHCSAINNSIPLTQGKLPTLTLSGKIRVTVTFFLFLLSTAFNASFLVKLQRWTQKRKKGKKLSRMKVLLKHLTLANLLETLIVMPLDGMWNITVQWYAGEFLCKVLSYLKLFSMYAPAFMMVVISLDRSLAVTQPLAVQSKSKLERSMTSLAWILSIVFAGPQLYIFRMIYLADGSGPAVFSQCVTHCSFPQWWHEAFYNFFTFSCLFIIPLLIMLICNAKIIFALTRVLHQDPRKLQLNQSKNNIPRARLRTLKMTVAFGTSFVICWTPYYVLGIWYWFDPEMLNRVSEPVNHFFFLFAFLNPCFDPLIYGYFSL
Briefly: in vitro test for LHRH antagonist potency (pA2). In kind it is cell-based. As to conditions: negative logarithm of the antagonist concentration required to shift the response curve produced by the agonist leuprolide to two-fold higher concentration. An outline of the steps: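 Antagonism read against the agonist leuprolide on rat LHRH receptor; value is pA2, the −log of antagonist concentration that doubles the agonist concentration needed for the same response.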

Non-standard residues stand in square brackets, D forms with d. Residues, ends and D or L forms follow the SMILES beside them. *: point of attachment. dPhe(4-Cl) = N[C@H](Cc1ccc(Cl)cc1)C(=O)O; d2Nal = N[C@H](Cc1ccc2ccccc2c1)C(=O)O; d(hCit) = NC(=O)NCCCC[C@@H](N)C(=O)O; Lys(iPr) = CC(C)NCCCC[C@H](N)C(=O)O; NMeY = CN[C@@H](Cc1ccc(O)cc1)C(=O)O; d3Pal = N[C@H](Cc1cccnc1)C(=O)O; Nicotinoyl = O=C(c1cccnc1)*; X1 = O=C([C@@H]1CCCO1)*; GABA = NCCCC(=O)O; βAla = NCCC(=O)O; Sar = CNCC(=O)O

As to `CC(C)C[C@H](NC(=O)[C@@H](CCCCNC(N)=O)NC(=O)[C@H](Cc1ccc(O)cc1)NC(=O)[C@H](CO)NC(=O)[C@@H](Cc1cccnc1)NC(=O)[C@@H](Cc1ccc(Cl)cc1)NC(=O)[C@@H](Cc1ccc2ccccc2c1)NC(=O)CNC(=O)[C@@H]1CCCO1)C(=O)N[C@@H](CCCNC(=N)N)C(=O)N1CCC[C@H]1C(=O)N[C@H](C)C(N)=O` [Example 95, N-(S)-2-Tetrahydrofuroyl-Gly-D2Nal-D4ClPhe-D3Pal-Ser-Tyr-DHcit-Leu-Arg-Pro- DAlaNH2] (X1-G[d2Nal][dPhe(4-Cl)][d3Pal]SY[d(hCit)]LRP[dA]-NH2), the Kb was 0.00759 nM.

Consider `CC(C)C[C@H](NC(=O)[C@@H](CCCCNC(=O)c1cccnc1)NC(=O)[C@H](Cc1ccc(O)cc1)N(C)C(=O)[C@H](CO)NC(=O)[C@@H](Cc1cccnc1)NC(=O)[C@@H](Cc1ccc(Cl)cc1)NC(=O)[C@@H](Cc1ccc2ccccc2c1)NC(=O)CCNC(=O)[C@@H]1CCCO1)C(=O)N[C@@H](CCCCNC(C)C)C(=O)N1CCC[C@H]1C(=O)N[C@H](C)C(N)=O` [Example 96, N (S)-2-Tetrahydrofuroyl-Bala-D2Nal-D4ClPhe-D3Pal-Ser-NMeTyr-DLys(Nic)-Leu-Lys(Isp)-Pro-DAlaNH2] ({X1-βAla}-[d2Nal][dPhe(4-Cl)][d3Pal]S[NMeY][dK](Nicotinoyl)L[Lys(iPr)]P[dA]-NH2), for which the Kb is 0.0275 nM.

On to `CC(C)C[C@H](NC(=O)[C@@H](CCCCNC(=O)c1cccnc1)NC(=O)[C@H](Cc1ccc(O)cc1)N(C)C(=O)[C@H](CO)NC(=O)[C@@H](Cc1cccnc1)NC(=O)[C@@H](Cc1ccc(Cl)cc1)NC(=O)[C@@H](Cc1ccc2ccccc2c1)NC(=O)CCCNC(=O)[C@@H]1CCCO1)C(=O)N[C@@H](CCCCNC(C)C)C(=O)N1CCC[C@H]1C(=O)N[C@H](C)C(N)=O` [Example 97, N (S)-2-Tetrahydrofuroyl-Gaba-D2Nal-D4ClPhe-D3Pal-Ser-NMeTyr-DLys(Nic)-Leu-Lys(Isp)-Pro-DAlaNH2] ({X1-GABA}-[d2Nal][dPhe(4-Cl)][d3Pal]S[NMeY][dK](Nicotinoyl)L[Lys(iPr)]P[dA]-NH2), for which the antagonist dissociation constant (Kb) was 0.0339 nM.

On to `CC(C)C[C@H](NC(=O)[C@@H](CCCCNC(=O)c1cccnc1)NC(=O)[C@H](Cc1ccc(O)cc1)N(C)C(=O)[C@H](CO)NC(=O)[C@@H](Cc1cccnc1)NC(=O)[C@@H](Cc1ccc(Cl)cc1)NC(=O)[C@@H](Cc1ccc2ccccc2c1)NC(=O)CN(C)C(=O)[C@@H]1CCCO1)C(=O)N[C@@H](CCCCNC(C)C)C(=O)N1CCC[C@H]1C(=O)N[C@H](C)C(N)=O` [Example 99, N (S)-2-Tetrahydrofuroyl-Sar-D2Nal-D4ClPhe-D3Pal-Ser-NMeTyr-DLys(Nic),Leu-Lys(Isp)-Pro-DAlaNH2] (X1-[Sar][d2Nal][dPhe(4-Cl)][d3Pal]S[NMeY][dK](Nicotinoyl)L[Lys(iPr)]P[dA]-NH2), for which the Kb is 0.0117 nM.

On to `CC(C)C[C@H](NC(=O)[C@@H](CCCCNC(=O)c1cccnc1)NC(=O)[C@H](Cc1ccc(O)cc1)N(C)C(=O)[C@H](CO)NC(=O)[C@@H](Cc1cccnc1)NC(=O)[C@@H](Cc1ccc(Cl)cc1)NC(=O)[C@@H](C)NC(=O)CNC(=O)[C@@H]1CCCO1)C(=O)N[C@@H](CCCCNC(C)C)C(=O)N1CCC[C@H]1C(=O)N[C@H](C)C(N)=O` [Example 100, N (S)-2-Tetrahydrofuroyl-Gly-DAla-D4ClPhe-D3Pal-Ser-NMeTyr-DLys(Nic)-Leu-Lys(Isp)-Pro-DAlaNH2] (X1-G[dA][dPhe(4-Cl)][d3Pal]S[NMeY][dK](Nicotinoyl)L[Lys(iPr)]P[dA]-NH2), for which the Kb was 21.9 nM.

With `CC(C)C[C@H](NC(=O)[C@@H](CCCCNC(=O)c1cccnc1)NC(=O)[C@H](Cc1ccc(O)cc1)N(C)C(=O)[C@H](CO)NC(=O)[C@@H](Cc1cccnc1)NC(=O)[C@@H](Cc1ccc(Cl)cc1)NC(=O)CN(C)C(=O)CNC(=O)[C@@H]1CCCO1)C(=O)N[C@@H](CCCCNC(C)C)C(=O)N1CCC[C@H]1C(=O)N[C@H](C)C(N)=O` [Example 101, N (S)-2-Tetrahydrofuroyl-Gly-Sar-D4ClPhe-D3Pal-Ser-NMeTyr-DLys(Nic)-Leu-Lys(Isp)-Pro-DAlaNH2] (X1-G[Sar][dPhe(4-Cl)][d3Pal]S[NMeY][dK](Nicotinoyl)L[Lys(iPr)]P[dA]-NH2), the Kb was 42.7 nM.
